Assay results published in patent US20250212889A1, “COMPOSITION CONTAINING BACILLUS AMYLOLIQUEFACIENS STRAIN FOR ENHANCING PLANT DISEASE RESISTANCE AND USE THEREOF” (CJ CHEILJEDANG CORPORATION, priority 2022, published 2025).

Assays:
Assay type in all cases: in vivo
[1] = test system: soybeans; assay: Growth promoting ability, shoot weight of soybeans
Experimental: (§1) One week after sowing in pots, root zone treatment of each plant was performed using each 5 ml of BTH, valine, […] powder preparation, and the mixture of […] powder preparation and valine. The root zone treatment with BTH, valine, […] powder preparation, and the mixture of […] powder preparation and valine was performed twice at one week intervals, respectively. One week after the last treatment, a shoot of each treatment group was cut and weighed.

[2] = test system: cucumbers; assay: Growth promoting ability, shoot weight of cucumbers
Experimental: as §1

[3] = test system: Phytophthora sojae; assay: Mixed treatment pot experiment, soybean Phytophthora stem and root rot; details: soybeans, valine 0.05% in mixed treatment, compared to the untreated group
[4] = test system: Pseudomonas syringae pv. lachrymans; assay: Mixed treatment pot experiment, cucumber bacterial leaf blight; details: cucumbers, valine 0.05% in mixed treatment, compared to the untreated group
[5] = test system: Phytophthora sojae; assay: Mixed treatment glass greenhouse experiment, soybean Phytophthora stem and root rot; details: soybeans, compared to the untreated group
Experimental: The subject of the experiment was soybeans. Plant preparation, treatment with […] powder preparation and valine, and treatment of soybean Phytophthora stem and root rot were performed in the same manner as Example 7. […] The control value was calculated as follows. [formula]

[6] = test system: Pseudomonas syringae pv. tomato DC3000; assay: Induced resistance, population of pathogens in Arabidopsis thaliana leaves; details: Arabidopsis thaliana leaf disc, root zone treatment, 3 days after Pst inoculation
Experimental: To this end, Arabidopsis thaliana which is a plant model was used, and Pseudomonas syringae pv. tomato DC3000 (hereinafter, referred to as Pst) causing leaf spot was used as a pathogen. To grow the plant, the surface of seeds of Arabidopsis thaliana was sterilized by immersing the seeds in 3% sodium hypochlorite (NaOCI) for 5 minutes. Thereafter, the seeds were rinsed five times using sterile water and then sown in a pot, and cultured in a plant incubator (12-hour light and 23° C. temperature conditions) for 3 weeks, followed by root zone treatment with each 50 ml of benzothiadiazole (BTH), serenade, N351 strain, valine, and mixture of N351 strain and valine. 7 days after treatment, the pathogen was inoculated and the population of pathogens was examined 0 day and 3 days later. To examine the population of pathogens, the leaves were cut into 1 cm discs using a cork borer and placed in an e-tube containing 1 ml of sterile water and beads. The leaves were ground for 2 minutes at 6000 rpm using a homogenizer (Bertin), and the population of pathogens in the juice was examined.

[7] = test system: Pathogenesis-related protein (PR) 1a promoter GUS fusion construct; assay: Induced resistance, PR1a promoter GUS expression; details: Arabidopsis thaliana leaves, 0 to 3 days after disease treatment
[8] = root zone treatment 5 ml twice, one week after last treatment

In the case of `CSC(=O)c1cccc2nnsc12` [BTH, benzo (1,2,3)-thiadiazile-7-carbothioic acid S-methyl ester, reference compound], the “growth compared to the untreated control group” value [1] is reported as “rather inhibited” and the “growth compared to the untreated control group” value [2] is reported as “growth inhibition”.

`CC(C)[C@H](N)C(=O)O` [valine] gave a control value [3] of 36%, a control value [4] of 38% and a control value [5] of 24%. For the same compound, the population of pathogens [6] was 8 LogCFU/disc, the “GUS activity/expression (PR1a)” value [7] was “most strongly induced 1 day after disease treatment, and expression became weaker over time” and the “shoot weight, average” value [1, 8] was 9.3 g. The “growth further promoted compared to the untreated group” value ([1]; vs untreated group of 8.2 g) was 1.1 g, the “shoot weight, average” value [2, 8] was 14 g and the “growth further promoted compared to the untreated group” value ([2]; vs untreated group of 12.6 g) was 1.4 g.
